Consider six compounds from patent US12258328B2, “6-membered heteroaryl-containing aminopyridine compounds as EGFR inhibitors” (YUHAN CORPORATION, priority 2021, dated 2025).

The target in one test is EGFR del19/T790M/C797S (Homo sapiens, UniProt P00533, C797S/DEL746-750/T790M). The test can be described thus: Biochemical EGFR kinase assay (Lance Ultra TR-FRET), triple mutant del19/T790M/C797S. Put shortly: (§1)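 Kinase activity is measured by TR-FRET phosphopeptide detection. Compounds span 0.003 μM to 10 μM; the 1 h reaction at room temperature is quenched with EDTA, then labelled antibody (2 nM) is incubated 60 min before reading.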
(In general: Time-resolved FRET reads energy transfer from a long-lived donor to a nearby acceptor.)

For a further test, the target named is EGFR L858R/T790M/C797S (Homo sapiens, UniProt P00533, C797S/L858R/T790M). The experiment in a line: Biochemical EGFR kinase assay (Lance Ultra TR-FRET), triple mutant L858R/T790M/C797S. Put shortly:
as §1

In a further test the target is EGFR del19/C797S (Homo sapiens, UniProt P00533, C797S/DEL746-750). The test can be described thus: Biochemical EGFR kinase assay (Lance Ultra TR-FRET), double mutant del19/C797S. Put shortly: as §1
The next test has as its target EGFR L858R/C797S (Homo sapiens, UniProt P00533, C797S/L858R). The test can be described thus: Biochemical EGFR kinase assay (Lance Ultra TR-FRET), double mutant L858R/C797S. The method, boiled down:
as §1

Another test has as its target EGFR wildtype (Homo sapiens, UniProt P00533). The test can be described thus: Biochemical EGFR kinase assay (Lance Ultra TR-FRET), wildtype. Put shortly: as §1
The mark [1] stands for this setting: ATP at Km, read-out: IC50 del19/T790M/C797S, Km ATP.
The mark [2] stands for this setting: IC50 del19/T790M/C797S, 100 μM ATP.
[3] abbreviates: IC50 L858R/T790M/C797S, 100 μM ATP.
Setting [4] is: ATP at Km, read-out: IC50 del19/C797S, Km ATP.
The mark [5] stands for this setting: ATP at Km, read-out: IC50 L858R/C797S, Km ATP.
Where [6] appears, read: ATP at Km, read-out: IC50 WT, Km ATP.
Setting [7] is: ATP at Km, read-out: IC50 L858R/T790M/C797S, Km ATP.

pIC50: −log10 of the molar value. Where two headings read alike, the source gives them in different places. A value given as a limit tells only on which side of the number the result lay.

Chain of EGFR L858R/T790M/C797S (P00533 25-1210 T790M/C797S/L858R): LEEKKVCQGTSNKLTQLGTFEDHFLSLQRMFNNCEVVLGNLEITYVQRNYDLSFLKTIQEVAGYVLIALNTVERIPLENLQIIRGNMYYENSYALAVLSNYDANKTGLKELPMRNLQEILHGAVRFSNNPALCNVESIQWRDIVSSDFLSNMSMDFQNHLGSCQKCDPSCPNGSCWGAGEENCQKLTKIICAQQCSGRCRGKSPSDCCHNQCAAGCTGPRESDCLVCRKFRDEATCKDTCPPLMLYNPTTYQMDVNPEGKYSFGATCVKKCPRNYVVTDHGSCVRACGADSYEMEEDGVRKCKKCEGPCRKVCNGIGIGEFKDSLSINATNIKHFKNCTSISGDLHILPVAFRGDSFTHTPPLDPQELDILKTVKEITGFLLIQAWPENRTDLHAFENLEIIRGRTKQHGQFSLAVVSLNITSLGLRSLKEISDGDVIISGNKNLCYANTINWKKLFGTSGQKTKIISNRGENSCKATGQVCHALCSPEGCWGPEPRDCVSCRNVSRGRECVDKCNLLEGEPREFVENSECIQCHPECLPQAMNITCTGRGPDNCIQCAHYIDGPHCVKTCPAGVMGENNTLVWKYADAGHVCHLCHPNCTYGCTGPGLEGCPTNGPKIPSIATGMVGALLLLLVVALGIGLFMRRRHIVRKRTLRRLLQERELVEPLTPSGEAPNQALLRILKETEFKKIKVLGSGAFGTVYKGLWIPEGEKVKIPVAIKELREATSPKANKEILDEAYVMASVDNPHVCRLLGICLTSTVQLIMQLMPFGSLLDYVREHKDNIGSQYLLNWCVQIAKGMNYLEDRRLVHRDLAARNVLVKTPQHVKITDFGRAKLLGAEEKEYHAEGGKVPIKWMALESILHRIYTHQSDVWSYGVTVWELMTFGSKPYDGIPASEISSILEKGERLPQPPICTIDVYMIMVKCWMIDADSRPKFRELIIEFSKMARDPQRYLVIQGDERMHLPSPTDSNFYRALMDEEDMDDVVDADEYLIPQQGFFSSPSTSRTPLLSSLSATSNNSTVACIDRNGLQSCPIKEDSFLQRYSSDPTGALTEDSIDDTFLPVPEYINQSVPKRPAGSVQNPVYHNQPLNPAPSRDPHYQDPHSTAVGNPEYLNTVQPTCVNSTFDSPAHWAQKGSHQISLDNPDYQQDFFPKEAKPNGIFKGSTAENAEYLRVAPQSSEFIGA
Chain of EGFR wildtype (P00533 25-1210): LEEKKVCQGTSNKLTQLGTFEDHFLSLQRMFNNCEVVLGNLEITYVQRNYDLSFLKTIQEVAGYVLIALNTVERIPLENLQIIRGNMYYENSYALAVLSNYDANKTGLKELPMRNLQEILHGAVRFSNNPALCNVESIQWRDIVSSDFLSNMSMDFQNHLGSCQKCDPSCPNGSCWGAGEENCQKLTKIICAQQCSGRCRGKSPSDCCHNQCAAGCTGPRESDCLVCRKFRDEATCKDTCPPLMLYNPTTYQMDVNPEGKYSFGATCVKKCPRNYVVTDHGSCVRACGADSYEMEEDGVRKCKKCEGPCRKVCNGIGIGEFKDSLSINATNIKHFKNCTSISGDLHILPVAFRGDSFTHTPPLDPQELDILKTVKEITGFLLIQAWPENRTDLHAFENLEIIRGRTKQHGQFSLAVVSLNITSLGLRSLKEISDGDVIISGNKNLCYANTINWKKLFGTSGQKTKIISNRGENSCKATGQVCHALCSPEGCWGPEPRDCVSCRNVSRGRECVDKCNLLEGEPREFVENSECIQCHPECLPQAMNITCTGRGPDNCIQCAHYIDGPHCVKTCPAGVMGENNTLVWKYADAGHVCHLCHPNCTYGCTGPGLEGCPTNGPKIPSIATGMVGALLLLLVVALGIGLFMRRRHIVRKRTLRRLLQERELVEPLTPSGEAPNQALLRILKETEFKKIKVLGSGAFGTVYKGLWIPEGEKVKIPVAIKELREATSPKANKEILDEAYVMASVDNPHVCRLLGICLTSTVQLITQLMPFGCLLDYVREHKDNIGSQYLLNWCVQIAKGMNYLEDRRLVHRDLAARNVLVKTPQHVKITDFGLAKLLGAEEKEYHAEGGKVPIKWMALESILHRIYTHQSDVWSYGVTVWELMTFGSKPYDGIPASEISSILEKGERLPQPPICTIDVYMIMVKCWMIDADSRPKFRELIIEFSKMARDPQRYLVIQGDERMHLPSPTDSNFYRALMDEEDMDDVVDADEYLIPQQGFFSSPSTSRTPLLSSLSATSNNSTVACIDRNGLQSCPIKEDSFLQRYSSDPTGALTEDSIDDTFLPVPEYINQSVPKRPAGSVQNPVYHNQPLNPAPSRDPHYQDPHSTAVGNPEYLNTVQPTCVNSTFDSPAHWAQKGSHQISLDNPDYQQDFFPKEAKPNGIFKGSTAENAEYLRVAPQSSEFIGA
Chain of EGFR del19/C797S (P00533 with tags, fused parts or gaps DEL746-750/C797S): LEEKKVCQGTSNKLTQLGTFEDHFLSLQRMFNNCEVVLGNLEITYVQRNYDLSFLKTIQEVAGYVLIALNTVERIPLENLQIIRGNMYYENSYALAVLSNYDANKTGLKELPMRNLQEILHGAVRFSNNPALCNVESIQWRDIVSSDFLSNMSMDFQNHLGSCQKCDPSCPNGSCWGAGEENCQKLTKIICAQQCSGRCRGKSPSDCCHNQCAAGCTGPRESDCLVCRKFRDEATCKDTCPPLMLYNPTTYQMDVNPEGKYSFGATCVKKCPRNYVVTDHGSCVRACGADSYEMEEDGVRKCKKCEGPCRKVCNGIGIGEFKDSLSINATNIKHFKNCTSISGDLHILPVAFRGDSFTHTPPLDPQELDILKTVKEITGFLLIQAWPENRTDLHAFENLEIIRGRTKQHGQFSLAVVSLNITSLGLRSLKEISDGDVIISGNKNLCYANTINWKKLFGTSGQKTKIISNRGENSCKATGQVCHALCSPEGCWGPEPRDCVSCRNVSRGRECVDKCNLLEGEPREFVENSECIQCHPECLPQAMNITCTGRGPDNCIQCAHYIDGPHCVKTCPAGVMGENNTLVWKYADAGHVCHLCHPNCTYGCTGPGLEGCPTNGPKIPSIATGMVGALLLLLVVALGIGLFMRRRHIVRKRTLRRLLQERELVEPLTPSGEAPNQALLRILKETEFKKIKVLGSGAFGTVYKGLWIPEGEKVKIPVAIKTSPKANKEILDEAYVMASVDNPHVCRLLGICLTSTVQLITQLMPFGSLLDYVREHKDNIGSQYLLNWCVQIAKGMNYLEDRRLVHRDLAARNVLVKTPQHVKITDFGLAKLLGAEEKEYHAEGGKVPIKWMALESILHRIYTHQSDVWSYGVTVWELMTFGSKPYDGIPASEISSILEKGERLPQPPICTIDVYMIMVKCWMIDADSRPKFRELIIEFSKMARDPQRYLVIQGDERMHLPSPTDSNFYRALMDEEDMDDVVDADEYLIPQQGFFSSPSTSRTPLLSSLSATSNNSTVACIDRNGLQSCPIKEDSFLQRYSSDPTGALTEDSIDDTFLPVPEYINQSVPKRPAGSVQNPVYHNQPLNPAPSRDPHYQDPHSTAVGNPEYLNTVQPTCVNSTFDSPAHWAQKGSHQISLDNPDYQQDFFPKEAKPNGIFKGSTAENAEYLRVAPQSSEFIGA
Chain of EGFR del19/T790M/C797S (P00533 with tags, fused parts or gaps DEL746-750/T790M/C797S): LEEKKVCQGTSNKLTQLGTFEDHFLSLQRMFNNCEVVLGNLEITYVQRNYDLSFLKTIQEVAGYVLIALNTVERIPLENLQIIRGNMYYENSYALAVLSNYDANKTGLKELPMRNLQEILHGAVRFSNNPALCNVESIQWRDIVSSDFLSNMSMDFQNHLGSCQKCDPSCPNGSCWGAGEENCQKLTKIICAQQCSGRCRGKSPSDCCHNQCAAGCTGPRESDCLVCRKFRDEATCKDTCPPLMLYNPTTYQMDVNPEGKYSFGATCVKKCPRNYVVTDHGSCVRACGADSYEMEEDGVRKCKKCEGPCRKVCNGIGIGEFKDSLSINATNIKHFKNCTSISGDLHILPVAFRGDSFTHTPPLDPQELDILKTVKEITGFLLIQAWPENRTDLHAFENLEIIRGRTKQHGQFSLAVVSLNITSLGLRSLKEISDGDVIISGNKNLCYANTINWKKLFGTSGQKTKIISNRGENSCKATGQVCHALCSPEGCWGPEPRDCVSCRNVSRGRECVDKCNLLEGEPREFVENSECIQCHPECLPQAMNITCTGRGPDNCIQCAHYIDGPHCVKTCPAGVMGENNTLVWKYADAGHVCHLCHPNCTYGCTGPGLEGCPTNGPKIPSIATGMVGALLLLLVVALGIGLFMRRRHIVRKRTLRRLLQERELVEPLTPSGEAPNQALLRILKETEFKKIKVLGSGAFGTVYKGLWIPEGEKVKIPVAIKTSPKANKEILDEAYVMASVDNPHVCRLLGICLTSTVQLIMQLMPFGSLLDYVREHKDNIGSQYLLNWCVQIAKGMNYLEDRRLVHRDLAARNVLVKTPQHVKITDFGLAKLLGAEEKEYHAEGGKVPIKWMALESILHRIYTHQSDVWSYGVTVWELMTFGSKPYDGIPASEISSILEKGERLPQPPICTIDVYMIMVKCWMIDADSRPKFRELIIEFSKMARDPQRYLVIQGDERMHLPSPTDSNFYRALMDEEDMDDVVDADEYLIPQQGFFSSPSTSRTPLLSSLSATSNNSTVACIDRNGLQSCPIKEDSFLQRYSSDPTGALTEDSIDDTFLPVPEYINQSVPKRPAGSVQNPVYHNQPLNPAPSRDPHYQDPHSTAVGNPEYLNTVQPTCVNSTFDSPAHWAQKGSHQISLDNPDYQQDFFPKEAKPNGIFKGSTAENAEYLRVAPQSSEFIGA

With `CN(C)S(=O)(=O)c1ccc(-c2cnc(Nc3ccnc(-c4cnn(S(=O)(=O)C5CC5)c4)n3)cc2N[C@H]2CC[C@@H](CO)CC2)nc1` [Example 166, 6′-((2-(1-(Cyclopropylsulfonyl)-1H-pyrazol-4-yl)pyrimidin-4-yl)amino)-4′-(((1s,4s)-4-(hydroxymethyl)cyclohexyl)amino)-N,N-dimethyl-[2,3′-bipyridine]-5-sulfonamide], the pIC50 at EGFR del19/T790M/C797S (setting [1]) was 8.72; against EGFR del19/T790M/C797S (setting [2]) it was 8.29; against EGFR L858R/T790M/C797S (setting [3]) it was 9.22; at EGFR del19/C797S (setting [4]) it was 8.92; on EGFR del19/C797S (IC50 del19/C797S, 100 μM ATP), 8.62; at EGFR L858R/C797S (setting [5]) it was 8.96. The pIC50 at EGFR L858R/C797S (IC50 L858R/C797S, 100 μM ATP) was 8.62; on EGFR wildtype (setting [6]), 8.70; on EGFR wildtype (IC50 WT, 100 μM ATP) it was less than 5.00.
Take `CC(C)(O)[C@H]1CC[C@@H](Nc2cc(Nc3ccnc(-c4cnn(S(=O)(=O)C5CC5)c4)n3)ncc2-c2cccc(F)n2)CC1` [Example 163, 2-((1s,4s)-4-((6′-((2-(1-(Cyclopropylsulfonyl)-1H-pyrazol-4-yl)pyrimidin-4-yl)amino)-6-fluoro-[2,3′-bipyridin]-4′-yl)amino)cyclohexyl)propan-2-ol]: the pIC50 on EGFR del19/T790M/C797S (setting [2]) is 8.59; on EGFR L858R/T790M/C797S (setting [7]), 9.15; on EGFR L858R/T790M/C797S (setting [3]) it was 8.64; on EGFR del19/C797S (setting [4]) it was 8.59; on EGFR del19/C797S (IC50 del19/C797S, 100 μM ATP), 8.51; at EGFR L858R/C797S (setting [5]) it was 7.89. For the same compound, the pIC50 against EGFR L858R/C797S (IC50 L858R/C797S, 100 μM ATP) was 7.31; at EGFR wildtype (setting [6]), 7.73; against EGFR wildtype (IC50 WT, 100 μM ATP), less than 5.00.
As to `CN1CC(Oc2ccc(-c3cnc(Nc4ccnc(-c5cnn(S(=O)(=O)C6CC6)c5)n4)cc3N[C@H]3CC[C@@](C)(O)CC3)nc2)C1` [Example 289, (1s,4s)-4-((6′-((2-(1-(Cyclopropylsulfonyl)-1H-pyrazol-4-yl)pyrimidin-4-yl)amino)-5-((1-methylazetidin-3-yl)oxy)-[2,3′-bipyridin]-4′-yl)amino)-1-methylcyclohexan-1-ol], the pIC50 at EGFR del19/T790M/C797S (setting [1]) was 9.70; against EGFR del19/T790M/C797S (setting [2]) it was 9.70; on EGFR L858R/T790M/C797S (setting [7]), 10.00; on EGFR L858R/T790M/C797S (setting [3]) it was 10.00; on EGFR del19/C797S (setting [4]) it was 10.00; against EGFR del19/C797S (IC50 del19/C797S, 100 μM ATP) it was 9.70. Further, the pIC50 was 10.00 on EGFR L858R/C797S (setting [5]); 9.10 on EGFR L858R/C797S (IC50 L858R/C797S, 100 μM ATP); 9.52 on EGFR wildtype (setting [6]); 6.69 at EGFR wildtype (IC50 WT, 100 μM ATP).
`CN1CCC(Oc2ccc(-c3cnc(Nc4ccnc(-c5cnn(S(=O)(=O)C6CC6)c5)n4)cc3N[C@H]3CC[C@@H](F)CC3)nn2)CC1` [Example 270, N^2-(2-(1-(Cyclopropylsulfonyl)-1H-pyrazol-4-yl)pyrimidin-4-yl)-N^4-((1s,4s)-4-fluorocyclohexyl)-5-(6-((1-methylpiperidin-4-yl)oxy)pyridazin-3-yl)pyridine-2,4-diamine]: the pIC50 at EGFR del19/T790M/C797S (setting [1]) is 9.52; on EGFR L858R/T790M/C797S (setting [7]), 10.00; at EGFR del19/C797S (setting [4]), 8.49; at EGFR L858R/C797S (setting [5]), 8.96; at EGFR wildtype (setting [6]), 7.44.
As to `O=S(=O)(C1CC1)n1cc(-c2nccc(Nc3cc(N[C@H]4CC[C@@H](CO)CC4)c(-c4cc(NC5CC(F)(F)C5)ccn4)cn3)n2)cn1` [Example 214, ((1s,4s)-4-((6′-((2-(1-(Cyclopropylsulfonyl)-1H-pyrazol-4-yl)pyrimidin-4-yl)amino)-4-((3,3-difluorocyclobutyl)amino)-[2,3′-bipyridin]-4′-yl)amino)cyclohexyl)methanol], the pIC50 at EGFR del19/T790M/C797S (setting [1]) is 8.52; at EGFR del19/T790M/C797S (setting [2]), 8.25; on EGFR L858R/T790M/C797S (setting [7]), 8.46; on EGFR L858R/T790M/C797S (setting [3]), 8.35; on EGFR del19/C797S (setting [4]) it was 8.74; against EGFR del19/C797S (IC50 del19/C797S, 100 μM ATP) it was 8.10. Moreover, the pIC50 at EGFR L858R/C797S (setting [5]) was 8.66; against EGFR L858R/C797S (IC50 L858R/C797S, 100 μM ATP), 8.16; at EGFR wildtype (setting [6]), 8.35; at EGFR wildtype (IC50 WT, 100 μM ATP), 6.15.
With `C[C@]1(O)CC[C@@H](Nc2cc(Nc3ccnc(-c4cnn(S(=O)(=O)C5CC5)c4)n3)ncc2-c2cccc(F)n2)CC1` [Example 271, (1s,4s)-4-((6′-((2-(1-(Cyclopropylsulfonyl)-1H-pyrazol-4-yl)pyrimidin-4-yl)amino)-6-fluoro-[2,3′-bipyridin]-4′-yl)amino)-1-methylcyclohexan-1-ol], the pIC50 was 9.30 on EGFR del19/T790M/C797S (setting [1]); 9.22 against EGFR del19/T790M/C797S (setting [2]); 9.70 on EGFR L858R/T790M/C797S (setting [7]); 9.40 against EGFR L858R/T790M/C797S (setting [3]); 9.05 on EGFR del19/C797S (setting [4]); 9.15 against EGFR del19/C797S (IC50 del19/C797S, 100 μM ATP). Also, the pIC50 on EGFR L858R/C797S (setting [5]) was 9.22; on EGFR L858R/C797S (IC50 L858R/C797S, 100 μM ATP), 8.10; on EGFR wildtype (setting [6]), 8.42; on EGFR wildtype (IC50 WT, 100 μM ATP) it was less than 5.00.
